Residue numbers refer to the chain shown, from its start.
Legend:
NTAN1 C75A = molecular target: T1, NTAN1 C75A (Homo sapiens, UniProt Q96AB6, C75A); experiment: In vitro deamidation assay, NTAN1 C75A mutant; format: biochemical; conditions: substrate NRAAA, 100 μM, 37 °C, pH 7.0, LC-MS; vs wild-type (Figure 1e); three independent experiments
T1 construct: The gene for full-length NTAN1 was cloned into pET-21a(+); made in house; host or cells: E. coli Rosetta 2(DE3)
T1 sequence (Q96AB6 1-310 C75A): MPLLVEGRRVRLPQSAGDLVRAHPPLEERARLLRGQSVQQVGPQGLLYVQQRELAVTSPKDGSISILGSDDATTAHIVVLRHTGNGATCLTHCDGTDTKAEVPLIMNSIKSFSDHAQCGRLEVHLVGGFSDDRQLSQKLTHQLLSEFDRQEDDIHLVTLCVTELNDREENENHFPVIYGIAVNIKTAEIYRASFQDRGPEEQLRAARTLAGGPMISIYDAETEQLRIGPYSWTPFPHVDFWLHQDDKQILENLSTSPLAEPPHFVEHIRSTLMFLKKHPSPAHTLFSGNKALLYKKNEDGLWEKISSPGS
Excerpt: (§1) NTAN1 mutants were constructed using QuikChange Ⅱ Site-Directed Mutagenesis Kit (Agilent Technologies, Santa Clara, CA, USA). NTAN1 mutants, Q51A, S69A, T73A, T74A, C75A, H92A, S254A, T255A, and E260A were generated. The mutants were expressed and purified as for NTAN1.
(§2) Peptides with Nt-Asn which mimic potential substrates of NTAN1 were synthesized: NRA, NRAA, NRAAA, NRQVA, NRQVAA, NRQVAAA, NFAAR, NLAAR, NRAAR, NAAAR, NNAAR, NPAAR, NGAAR, and NDAAR. Non-Nt-Asn peptides, QRAAA and VRAAA, were also synthesized. NTAN1 (at concentrations of 0.5 μM, 0.16 μM, or 0.04 μM) and the peptides (at a concentration of 100 μM) were mixed and incubated at 37 °C in a buffer containing 200 mM NaCl and 10 mM HEPES-NaOH (pH 7.0). […] The deamidation coefficient of peptides catalyzed by NTAN1 was assessed by the slope of exponential curve drawn from the concentration of the substrate over incubation time.
(§3) The peptides were quantified by an LC-MS system (1260 Infinity/6430 Triple Quad, Agilent Technologies) equipped with a binary pump (G1312B), a thermostated column compartment (G1316C), a thermostat (G1330B), and an autosampler (G1367E). […] The data acquisition and processing were performed by using MassHunter Workstation Software Quantitative Analysis (Version B.05.00; Agilent Technologies, Santa Clara, CA, USA). […]

NTAN1 T255A = molecular target: T2, NTAN1 T255A (Homo sapiens, UniProt Q96AB6, T255A); experiment: In vitro deamidation assay, NTAN1 T255A mutant; format: biochemical; conditions: substrate NRAAA, 100 μM, 37 °C, pH 7.0, LC-MS (Figure 3c); three independent experiments
T2 construct: The gene for full-length NTAN1 was cloned into pET-21a(+); made in house; host or cells: E. coli Rosetta 2(DE3)
T2 sequence (Q96AB6 1-310 T255A): T1 sequence (Q96AB6 1-310 C75A) with A75C, T255A
Excerpt: as §1, §2, §3

NTAN1 S254A = experiment: In vitro deamidation assay, NTAN1 S254A mutant; format: biochemical, human; conditions: substrate NRAAA, 100 μM, 37 °C, pH 7.0, LC-MS (Figure 3b); three independent experiments
Excerpt: as §1, §2, §3

NTAN1 Q51A = molecular target: T3, NTAN1 Q51A (Homo sapiens, UniProt Q96AB6, Q51A); experiment: In vitro deamidation assay, NTAN1 Q51A mutant; format: biochemical; conditions: substrate NRAAA, 100 μM, 37 °C, pH 7.0, LC-MS (Figure 3e); three independent experiments
T3 construct: The gene for full-length NTAN1 was cloned into pET-21a(+); made in house; host or cells: E. coli Rosetta 2(DE3)
T3 sequence (Q96AB6 1-310 Q51A): T1 sequence (Q96AB6 1-310 C75A) with Q51A, A75C
Excerpt: as §1, §2, §3

With “NRAAA [synthesized peptide with Nt-Asn, 5 mer model substrate of NTAN1]” the “Deamidation activity of NTAN1 C75A” value (NTAN1 C75A) was “completely abolished”, the “Enzymatic activity of NTAN1 T255A” value (NTAN1 T255A) was “abolished” and the “Lower deamidation rate of NTAN1 S254A than wild-type NTAN1” value (NTAN1 S254A) was “threefold”. The “Deamidation activity of NTAN1 Q51A” value (NTAN1 Q51A) was “lost most deamidation activity”.

Reference: article PMC7022378, “Structural Analyses on the Deamidation of N-Terminal Asn in the Human N-Degron Pathway” (Biomolecules, 2020)
